In one data set the target is hERG (Homo sapiens, UniProt Q12809). The data set is described as follows: In vitro hERG cardiotoxocity. The settings on record: for IC50: top test concentration 30 uM. From the text: Supplement media-1.zip/Cardiotoxicity.csv, table | column: ic50; perc_inhibition_top_conc
(The hERG channel carries a current that helps repolarise heart muscle cells.)

The nature of data set [1]: Hepatic microsomal stability, HLM. Format: in vitro ADME, human. The note with it: for perc_remaining_no_cofactor: no cofactor.
A further data set concerns the target T1, COX2(h) (Homo sapiens, UniProt P35354).
T1 construct: purchased Eurofins Cerep (SafetyScreen44), recognised from the panel format
T1 sequence (P35354 18-604): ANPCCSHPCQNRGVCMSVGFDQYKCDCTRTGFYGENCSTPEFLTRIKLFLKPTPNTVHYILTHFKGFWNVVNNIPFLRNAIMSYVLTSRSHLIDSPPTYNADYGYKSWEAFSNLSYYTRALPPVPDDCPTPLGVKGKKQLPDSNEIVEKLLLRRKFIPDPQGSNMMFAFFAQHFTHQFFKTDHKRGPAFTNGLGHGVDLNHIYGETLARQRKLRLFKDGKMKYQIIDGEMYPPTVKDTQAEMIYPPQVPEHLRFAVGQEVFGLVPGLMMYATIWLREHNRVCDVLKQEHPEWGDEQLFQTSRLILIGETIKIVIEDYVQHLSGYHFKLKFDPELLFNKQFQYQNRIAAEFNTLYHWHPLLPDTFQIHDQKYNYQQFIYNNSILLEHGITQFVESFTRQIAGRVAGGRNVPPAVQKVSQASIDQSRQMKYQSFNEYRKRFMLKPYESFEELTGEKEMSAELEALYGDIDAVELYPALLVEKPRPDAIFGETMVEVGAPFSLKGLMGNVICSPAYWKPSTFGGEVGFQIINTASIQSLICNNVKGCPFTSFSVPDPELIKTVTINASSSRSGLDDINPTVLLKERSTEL
In words: In vitro CEREP profiling, COX2(h). The class given is biochemical. The note with it: test compound concentration 10 uM, Enzyme and Cell-based assays. From the text:
Supplement media-1.zip/Safety_Panel_Profile.csv, table | column: perc_inhibition

Another data set has as its target T2, IKKα(h) (Homo sapiens, UniProt O15111).
T2 construct: gene CHUK
T2 sequence (O15111 1-745): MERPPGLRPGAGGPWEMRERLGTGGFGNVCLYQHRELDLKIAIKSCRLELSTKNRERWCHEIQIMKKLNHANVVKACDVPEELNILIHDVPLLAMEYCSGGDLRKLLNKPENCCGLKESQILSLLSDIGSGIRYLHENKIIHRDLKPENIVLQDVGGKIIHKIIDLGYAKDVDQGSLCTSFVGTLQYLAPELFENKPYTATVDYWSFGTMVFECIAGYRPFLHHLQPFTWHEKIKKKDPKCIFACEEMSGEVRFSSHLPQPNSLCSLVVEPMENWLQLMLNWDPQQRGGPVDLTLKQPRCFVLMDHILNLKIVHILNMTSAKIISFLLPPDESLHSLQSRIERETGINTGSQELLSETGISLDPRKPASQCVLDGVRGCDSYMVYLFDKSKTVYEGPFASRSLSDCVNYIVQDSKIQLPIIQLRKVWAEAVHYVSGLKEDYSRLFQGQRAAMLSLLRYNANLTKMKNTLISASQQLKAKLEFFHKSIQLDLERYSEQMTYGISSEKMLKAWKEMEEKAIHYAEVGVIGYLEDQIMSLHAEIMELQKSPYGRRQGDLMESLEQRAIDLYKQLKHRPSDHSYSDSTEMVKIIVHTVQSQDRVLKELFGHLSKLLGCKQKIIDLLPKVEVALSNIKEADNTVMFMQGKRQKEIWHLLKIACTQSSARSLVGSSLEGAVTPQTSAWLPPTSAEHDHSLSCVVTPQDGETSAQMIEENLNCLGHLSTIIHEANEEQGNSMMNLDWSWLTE
The data set is described as follows: biochemical. Also noted: In vitro kinase panel profiling, per cent remaining kinase activity at 10 uM. The settings on record: atp_concentration=10, read-out: % of control remaining. From the text:
(§1) We derisk potential for off-target activity by profiling the compound in a CEREP panel, a standard secondary pharmacology assessment, as well as a kinase panel to derisk a potential hinge-binding motif in our leads, and a PARP panel to derisk activity against human […]. Reassuringly, the compounds are selective, with the only off-targets being moderate human CHRM2 and KOR receptors activity associated with ASAP-0011198.

Data set [2] concerns the target T3, PI3 Kinase (p110α/p85α)(h) (Homo sapiens, UniProt P42336).
T3 construct: gene PIK3CA
In words: biochemical. Also noted: In vitro kinase panel profiling, per cent remaining kinase activity at 10 uM. The settings on record: atp_concentration=200, read-out: % of control remaining.
Description: as §1

The next data set deals with CDK2/cyclinA(h) (Homo sapiens, UniProt P24941). The data set is described as follows: biochemical. Also noted: In vitro kinase panel profiling, per cent remaining kinase activity at 10 uM. The note with it: atp_concentration=45, read-out: % of control remaining.
Description: as §1

[3] abbreviates: at top test concentration 30 uM.
The mark [4] stands for this setting: In vitro human liver microsomal stability.

Read-outs that look alike come from different tables or passages of the source.

Sequence of hERG (Q12809 whole entry): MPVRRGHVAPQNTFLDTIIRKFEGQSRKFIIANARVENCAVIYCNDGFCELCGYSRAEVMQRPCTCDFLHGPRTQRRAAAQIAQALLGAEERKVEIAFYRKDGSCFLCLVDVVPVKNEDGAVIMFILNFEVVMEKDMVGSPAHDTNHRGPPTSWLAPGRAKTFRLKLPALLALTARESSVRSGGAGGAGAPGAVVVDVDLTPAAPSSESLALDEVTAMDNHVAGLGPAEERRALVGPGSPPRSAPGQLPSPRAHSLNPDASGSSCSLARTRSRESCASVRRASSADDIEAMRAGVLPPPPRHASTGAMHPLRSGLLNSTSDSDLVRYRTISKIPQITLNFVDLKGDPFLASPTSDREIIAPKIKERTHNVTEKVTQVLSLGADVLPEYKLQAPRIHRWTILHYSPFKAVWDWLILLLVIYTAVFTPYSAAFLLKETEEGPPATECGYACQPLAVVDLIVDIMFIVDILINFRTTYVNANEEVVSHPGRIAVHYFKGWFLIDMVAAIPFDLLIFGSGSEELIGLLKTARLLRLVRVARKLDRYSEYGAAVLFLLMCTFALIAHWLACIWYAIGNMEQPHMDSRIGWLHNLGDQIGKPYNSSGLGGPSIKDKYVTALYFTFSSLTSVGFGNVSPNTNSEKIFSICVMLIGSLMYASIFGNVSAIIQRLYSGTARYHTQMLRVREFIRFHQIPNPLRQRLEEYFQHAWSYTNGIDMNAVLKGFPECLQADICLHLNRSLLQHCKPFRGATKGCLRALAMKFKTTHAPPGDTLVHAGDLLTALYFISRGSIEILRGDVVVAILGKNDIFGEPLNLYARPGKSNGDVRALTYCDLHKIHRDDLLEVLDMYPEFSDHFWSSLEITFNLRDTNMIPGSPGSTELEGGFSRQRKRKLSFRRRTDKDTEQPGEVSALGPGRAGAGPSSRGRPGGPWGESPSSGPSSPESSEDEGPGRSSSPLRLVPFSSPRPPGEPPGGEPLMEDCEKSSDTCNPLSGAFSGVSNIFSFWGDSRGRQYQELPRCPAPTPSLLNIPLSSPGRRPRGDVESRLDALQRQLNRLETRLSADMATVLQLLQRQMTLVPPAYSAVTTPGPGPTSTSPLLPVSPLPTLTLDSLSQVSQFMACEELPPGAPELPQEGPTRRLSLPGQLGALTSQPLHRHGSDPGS
T3 sequence (P42336 whole entry): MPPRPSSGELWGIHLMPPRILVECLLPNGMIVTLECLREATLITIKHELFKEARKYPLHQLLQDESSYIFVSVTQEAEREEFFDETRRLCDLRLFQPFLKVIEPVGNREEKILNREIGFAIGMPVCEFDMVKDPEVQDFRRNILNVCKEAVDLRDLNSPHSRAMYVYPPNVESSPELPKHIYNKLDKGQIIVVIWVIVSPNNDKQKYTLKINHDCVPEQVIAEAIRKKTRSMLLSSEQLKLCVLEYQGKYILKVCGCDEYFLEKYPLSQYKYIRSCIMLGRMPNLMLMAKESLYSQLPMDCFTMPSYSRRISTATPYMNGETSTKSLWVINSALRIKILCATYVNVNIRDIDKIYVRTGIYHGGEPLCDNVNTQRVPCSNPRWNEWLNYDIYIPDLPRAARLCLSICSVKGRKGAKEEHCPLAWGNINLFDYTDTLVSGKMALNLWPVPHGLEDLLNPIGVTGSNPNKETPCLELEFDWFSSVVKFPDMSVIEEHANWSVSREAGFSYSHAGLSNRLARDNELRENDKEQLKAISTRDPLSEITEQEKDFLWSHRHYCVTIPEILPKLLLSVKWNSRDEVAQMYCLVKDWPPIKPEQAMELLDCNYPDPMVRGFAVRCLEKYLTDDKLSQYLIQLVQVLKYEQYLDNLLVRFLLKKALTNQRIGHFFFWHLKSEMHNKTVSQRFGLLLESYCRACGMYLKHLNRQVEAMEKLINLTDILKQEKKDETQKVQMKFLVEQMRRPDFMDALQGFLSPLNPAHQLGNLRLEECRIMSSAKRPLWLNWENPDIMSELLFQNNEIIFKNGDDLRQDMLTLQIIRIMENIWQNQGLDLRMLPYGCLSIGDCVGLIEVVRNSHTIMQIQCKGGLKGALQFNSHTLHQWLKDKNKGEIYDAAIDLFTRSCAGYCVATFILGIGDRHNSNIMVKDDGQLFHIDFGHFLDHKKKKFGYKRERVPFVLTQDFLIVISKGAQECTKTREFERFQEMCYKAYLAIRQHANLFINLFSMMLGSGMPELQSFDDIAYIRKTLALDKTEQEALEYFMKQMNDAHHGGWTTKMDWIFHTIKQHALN
T3 sequence (P27986 whole entry partner): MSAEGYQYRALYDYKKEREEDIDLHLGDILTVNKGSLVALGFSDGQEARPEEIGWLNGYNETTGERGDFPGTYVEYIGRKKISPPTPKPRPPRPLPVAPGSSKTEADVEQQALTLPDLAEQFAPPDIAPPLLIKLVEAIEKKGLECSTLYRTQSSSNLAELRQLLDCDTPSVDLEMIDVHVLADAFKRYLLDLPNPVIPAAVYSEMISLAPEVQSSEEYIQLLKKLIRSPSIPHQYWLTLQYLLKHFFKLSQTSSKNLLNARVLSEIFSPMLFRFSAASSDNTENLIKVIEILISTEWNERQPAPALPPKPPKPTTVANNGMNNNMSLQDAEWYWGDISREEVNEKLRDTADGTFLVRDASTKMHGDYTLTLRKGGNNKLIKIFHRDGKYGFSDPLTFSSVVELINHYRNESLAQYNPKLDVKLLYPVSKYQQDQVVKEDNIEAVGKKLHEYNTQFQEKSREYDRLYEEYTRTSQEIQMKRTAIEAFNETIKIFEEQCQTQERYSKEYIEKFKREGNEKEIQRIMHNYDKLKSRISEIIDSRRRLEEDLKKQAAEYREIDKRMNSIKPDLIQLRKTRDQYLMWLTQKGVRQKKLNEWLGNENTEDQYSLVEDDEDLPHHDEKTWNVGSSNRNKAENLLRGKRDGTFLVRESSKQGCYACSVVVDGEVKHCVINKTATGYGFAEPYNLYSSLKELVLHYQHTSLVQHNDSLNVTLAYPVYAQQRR

Turning to `CNCc1cc(-c2cc3c(N[C@@H](c4ccc5c(c4)S(=O)(=O)CCC5)C(C)C)ncnc3[nH]2)co1` [ASAP-0011176], the perc_inhibition_top_conc on hERG (setting [3]) came to 26.0%. Further, the IC50 (in general, the concentration that inhibits the measured activity by half) at hERG is above 30 µM. Besides, in data set [1] (setting [4]), the clint turned out to be 133.0 µL/min/mg, the perc_remaining was found to be 10.0%, the t_half is listed as 12.6 min and the perc_remaining_no_cofactor amounted to 95.0%. Besides, the “perc_inhibition: % inhibition of control enzyme activity, COX2(h)” value (from here on “perc_inhibition: % inhibition”) at COX2(h) is 24%. Moreover, the remaining activity at 10 µM on IKKα(h) (batch_name=ASAP-0011176-002) was 79%. For the same molecule, the remaining activity at 10 µM in data set [2] (batch_name=ASAP-0011176-002) came to 99%. For the same molecule, at CDK2/cyclinA(h) (batch_name=ASAP-0011176-002), the remaining activity at 10 µM is 98%.
In the case of `CC(C)C(Nc1ncnc2[nH]c(C(=O)NC3CCN(C)C3)cc12)c1ccc2c(c1)S(=O)(=O)CCC2` (stereo not drawn) [ASAP-0011198], the perc_inhibition_top_conc on hERG (at top test concentration 30 uM, 30 µM) is 23.0%. Further, the inhibition at 30 µM at hERG (human, at top test concentration 30 uM, read-out: perc_inhibition_top_conc) came to 18%. Besides, the concentration for half-maximal inhibition (IC50) against hERG is above 30 µM. Also, in data set [1] (HLM/MLM), the “clearance (metabolic stability), in words” value is listed as “low clearance”. Further, in data set [1] (setting [4]), the perc_remaining is 70.0%, the t_half was found to be 83.8 min and the perc_remaining_no_cofactor is recorded as 106.0%. The microsomal CLint – broadly, the rate of metabolic loss divided by the concentration – in data set [1] (liver microsomes, In vitro human liver microsomal stability) came out at 20 µL/min/mg. Also, on COX2(h) (read-out: perc_inhibition: % inhibition of control enzyme activity, COX2(h)), the inhibition at 10 µM worked out at 4%. Moreover, the remaining activity at 10 µM on IKKα(h) (batch_name=ASAP-0011198-002) came out at 82%. The remaining activity at 10 µM in data set [2] (batch_name=ASAP-0011198-002) was determined as 104%. For the same molecule, at CDK2/cyclinA(h) (batch_name=ASAP-0011198-002), the remaining activity at 10 µM came out at 117%.
`Cn1ncc(-c2cc3c(N[C@@H](c4ccc5c(n4)OCCO5)C(C)(C)C)ncnc3[nH]2)c1C#N` [ASAP-0011221] had a concentration for half-maximal inhibition (IC50) at hERG of 19.5 µM. Also, in data set [1] (setting [4]), the clint was found to be 283.0 µL/min/mg, the perc_remaining is listed as 1.0%, the t_half is on record as 5.9 min and the perc_remaining_no_cofactor is 85.0%. For the same molecule, at COX2(h), the “perc_inhibition: % inhibition” value is -9%. In addition, the remaining activity at 10 µM on IKKα(h) (batch_name=ASAP-0011221-002) turned out to be 125%. The remaining activity at 10 µM in data set [2] (batch_name=ASAP-0011221-002) stood at 75%. The remaining activity at 10 µM at CDK2/cyclinA(h) (batch_name=ASAP-0011221-002) amounted to 114%.
At hERG (setting [3]), `C[C@H](C(=O)O)[C@@H](NC(=O)c1ncnc2[nH]ccc12)c1ccc(Br)cc1` [ASAP-0014722] came in with a perc_inhibition_top_conc of 28.0%. This molecule came in with a half-maximal inhibitory concentration (IC50) on hERG above 30 µM. In data set [1] (setting [4]), the clint was found to be 3.0 µL/min/mg, the perc_remaining was found to be 92.211%, the t_half was determined as 573.861 min and the perc_remaining_no_cofactor is recorded as 101.611%. Also, at COX2(h), the “perc_inhibition: % inhibition” value turned out to be 7%. In addition, on IKKα(h) (batch_name=ASAP-0014722-002), the remaining activity at 10 µM came out at 99%. Moreover, the remaining activity at 10 µM in data set [2] (batch_name=ASAP-0014722-002) worked out at 100%. In addition, the remaining activity at 10 µM at CDK2/cyclinA(h) (batch_name=ASAP-0014722-002) was determined as 102%.
Consider `COc1ccc([C@H](Cc2nnn[nH]2)NC(=O)c2ncnc3[nH]ccc23)cc1` [ASAP-0015381], for which the perc_inhibition_top_conc on hERG (setting [3]) was determined as 27.0%. The molecule further displayed an IC50 at hERG above 30 µM. For the same molecule, in data set [1] (setting [4]), the clint came out at 2.0 µL/min/mg, the perc_remaining came to 105.597%, the t_half is on record as 1085.642 min and the perc_remaining_no_cofactor was 84.68%. Also, on COX2(h), the “perc_inhibition: % inhibition” value is -1%. Moreover, on IKKα(h) (batch_name=ASAP-0015381-001), the remaining activity at 10 µM stood at 98%. For the same molecule, in data set [2] (batch_name=ASAP-0015381-001), the remaining activity at 10 µM was 99%. For the same molecule, the remaining activity at 10 µM at CDK2/cyclinA(h) (batch_name=ASAP-0015381-001) is 113%.

These data come from doi:10.1101/2024.08.19.608619, “Discovery of potent SARS-CoV-2 nsp3 macrodomain inhibitors uncovers lack of translation to cellular antiviral response” (bioRxiv, 2024).
